Assay results reported in publication PMC9538480, “Rutin bioconjugates as potential nutraceutical prodrugs: An in vitro and in ovo toxicological screening” (Frontiers in Pharmacology, 2022).
Values after ≈ are worked out from the molar mass of the structure shown.

What was measured:
[1] = system: HUVEC endothelial cells; details: ref Bass et al., 2020; cited from earlier work
[2] = system: chorioallantoic membrane; test: HET-CAM in ovo irritant potential; format: in vivo, Gallus domesticus; details: for vascular irritation signs (hemorrhage, lysis, coagulation) in words: 5 min after application; for tC = time of coagulation / tH = time of hemorrage / tL = time of lysis / Irritation score (IS): test compounds 100 µM, 5 min observation; for Irritation score (IS): 600 μl
Protocol: To perform a toxicological screening and to verify the irritant potential of the RUT-O and RUT-L were used chicken eggs (Gallus domesticus). Specifically, the eggs were prepared as follows: 1) after being washed and disinfected with 70% ethanol (v/v), the eggs were placed in an incubator in a horizontal posture; 2) on the fourth day of incubation, a small hole was made through which a volume of approximately 7–8 ml of albumen was extracted in order to facilitate the detachment of the chorioallantoic membrane from the inner shell of the egg; 3) on the fifth day of incubation, a window was cut in the upper part of the egg to allow the visualization of the blood vessels, which was then covered with adhesive tape and the eggs were placed in the incubator until the day of the beginning of the experiment. Using the Hen’s Egg Test—Chorioallantoic Membrane (HET-CAM) assay, the potential in ovo toxicity of the samples was evaluated. […] [Kis et al., 2022]). […] In order to observe any vascular effects, a stereomicroscope (Discovery 8 Stereomicroscope Zeiss, Göttingen, and Germany) was used, and images were taken with a Zeiss Axio CAM 105 color camera before and 5 min after the application of the samples. The same experimental protocol was applied for the parent compounds—RUT, OA, and LA.

[3] = in vitro; format: cell-based, rat; details: rat
Protocol: (§1) To evaluate the in vitro effect of rutin esters (REs) on cells’ viability, the MTT technique was applied following a 24 h treatment of H9c2(2-1), HepaRG, and HaCaT cells with RUT-O and RUT-L (1, 10, 25, 50, and 100 µM). The parent compounds (PCs)—RUT, OA, and LA were also tested. DMSO was used as solvent for all test compounds (RUT, OA, LA, RUT-O, and RUT-L). The impact of DMSO at tested concentrations (1, 10, 25, 50, and 100 µM) was also assessed in vitro. At the end of the treatment, fresh media (100 µl) and the MTT reagent (10 µl) were added in each well, and the plates were incubated for 3 h at 37°C. The final steps were as follows: addition of the solubilization solution (100 µl/well), incubation of the plates at room temperature for 30 min, protected from light, and absorbance measurement at two wavelengths (570 and 630 nm) using Cytation 5 (BioTek Instruments Inc., Winooski, VT, United States). The results were expressed as percentage (%) of viable cells normalized to control cells (unstimulated cells).

[4] = system: H9c2(2-1) cells; format: cell-based, rat; details: 100 µM, 24 h, Hoechst 33342
Protocol: (§2) The potential toxicity of 100 μM RUT, OA, LA, RUT-O, and RUT-L at nuclear level was tested by applying the Hoechst 33342 staining assay protocol according to the manufacturer’s (Thermo Fisher Scientific, Inc., Waltham, MA, United States) recommendations. In brief, H9c2(2-1), HepaRG, and HaCaT cells were seeded in 12-well plates (10^5 cells/1.5 ml/well) and treated with the test compounds for 24 h. After the stimulation period, the media was removed, and the staining solution diluted 1:2000 in PBS was added (500 µl/well). The plates were incubated for 10 min at room temperature, protected from light. Finally, the staining solution was washed with PBS and the pictures were taken using Cytation 1 (BioTek Instruments Inc., Winooski, VT, United States) and analyzed by the means of Gen5™ Microplate Data Collection and Analysis Software (BioTek Instruments Inc., Winooski, VT, United States). Staurosporine (STP) 5 µM was selected as positive control for apoptosis.

[5] = system: H9c2(2-1), HaCaT, and HepaRG cells; format: cell-based; details: 100 µM, 24 h; for round cells floating in the culture medium: bright field; for impact on cells' adherence or confluency: compared to control cells
Protocol: To verify the impact of PCs (RUT, OA and LA) and REs (RUT-O and RUT-L) on the morphology and confluence of H9c2(2-1), HaCaT, and HepaRG cells, a microscopic examination was performed. The cells were observed under bright field illumination and photographed at the end of the 24 h treatment period using Cytation 1 (BioTek Instruments Inc., Winooski, VT, United States). The photographs were processed using the Gen5™ Microplate Data Collection and Analysis Software (BioTek Instruments Inc., Winooski, VT, United States).

[6] = system: HepaRG cells; format: cell-based, human; details: 100 µM, 24 h, Hoechst 33342
Protocol: as §2

[7] = system: HaCaT cells; format: cell-based, human; details: 100 µM, 24 h, Hoechst 33342
Protocol: as §2

[8] = in vitro; format: cell-based, human; details: human
Protocol: as §1

[9] = system: H9c2(2-1) cells; test: in vitro; format: cell-based, rat; details: H9c2(2-1), 24 h; for cell viability normalized to control: MTT
Protocol: as §1

[10] = system: HaCaT cells; format: cell-based, human; details: 24 h; for effect on cell viability: 1-100 µM
Protocol: as §1

[11] = system: HaCaT cells; parameters: method as in Deepika et al., 2019; details: ref Deepika et al., 2019; cited from earlier work
[12] = system: HaCaT cells; test: Wound healing (scratch) assay; format: cell-based, human; details: 25 µM, 24 h
Protocol: (§3) The influence of RUT-O and RUT-L on the migration of cells was assessed by performing the wound healing (scratch) assay. In brief, the cells (10^5 cells/ml/well) were cultured in 24-well plates (Corning Costar), and an automatic scratch was made in each well by using the AutoScratchTM Wound Making Tool provided by BioTek® Instruments Inc. (Winooski, VT, United States). The cells were further treated with the flavonoid esters at the concentration of 25 μM for 24 h, and representative images of the wound area were taken at 0 and 24 h using Cytation 1 (BioTek® Instruments Inc., Winooski, VT, United States). The wound widths were measured using Gen5 TM Microplate Data Collection and Analysis Software (BioTek® Instruments Inc., Winooski, VT, United States). The effects on cell migration were quantified by calculating the wound healing rates (%) using a formula presented in our previous studies ([[…] et al., 2020]).

[13] = system: H9c2(2-1) cells; test: Wound healing (scratch) assay; format: cell-based, rat; details: 25 µM, 24 h, control 45.71%
Protocol: as §3

[14] = system: reconstructed human epidermis 3D tissues—EpiDerm™ (EPI-212); details: for tissue viability compared to negative control (DPBS-treated inserts) / skin irritation classification (OECD Test Guideline 439, irritant if viability below 50%): 100 µM; for skin irritation classification (OECD Test Guideline 439, irritant if viability below 50%): EpiDerm
From the text: The reconstructed human epidermal model—EpiDerm™ (EPI-212, [MatTek Corporation protocol, 2021], Bratislava, Slovakia) (Lot no. 36155) is a multilayered differentiated human epidermis model made of normal human-derived epidermal keratinocytes, validated as test method for the OECD 439 (In vitro skin irritation: reconstructed human epidermis test methods) ([OECD, 2021]). The EpiDerm™ tissues (prepared as inserts) that served as model for the skin irritation test together with the specific culture media (assay medium—EPI-100-NMM), Dulbecco’s phosphate buffered saline (DPBS) (negative control), sodium dodecyl sulphate (SDS) 5% and the MTT kit were provided by the manufacturer (MatTek Corporation, Bratislava, Slovakia).
The in vitro skin irritation test (EPI-212-SIT) was performed according to the manufacturer’s recommendations and to the data from the literature [MatTek Corporation protocol—In vitro EpiDerm Skin Irritation Test (EPI-200-SIT); [Kandarova et al., 2018]]. […] The same protocol was performed for the positive (5% SDS in saline) and negative (sterile DPBS) controls. The tissue viability (%) was calculated according to the formulas specified in the literature ([Pinzaru et al., 2021]).

[15] = system: HepaRG cells; test: Wound healing (scratch) assay; format: cell-based, human; details: 25 µM, 24 h, control 44.31%
Protocol: as §3

[16] = system: HepaRG cells; test: in vitro; format: cell-based, human; details: 100 µM
Protocol: as §1

[17] = lowest concentrations (1 and 10 µM)

CCCCCCCC/C=C\CCCCCCCC(=O)O [OA, oleic acid]
doses inducing cytotoxicity in HUVEC endothelial cells [1]: above 200 µM | vascular irritation signs (hemorrhage, lysis, coagulation) in words [2]: No signs of vascular irritation | viability at 24 h, 50 µM [3]: 89.8% | viability at 24 h, 100 µM [3]: 82.9% | nuclear morphology changes [4]: no significant nuclear alterations | round cells floating in the culture medium [5]: several round cells floating in the culture medium | impact on cells' adherence or confluency [5]: no negative impact | nuclear morphology changes [6]: no significant nuclear alterations | nuclear morphology changes [7]: no significant nuclear alterations | viability at 24 h, 50 µM [8]: 87.9% | viability at 24 h, 100 µM [8]: 76.4%

C[C@@H]1O[C@@H](OC[C@H]2O[C@@H](Oc3c(-c4ccc(O)c(O)c4)oc4cc(O)cc(O)c4c3=O)[C@H](O)[C@@H](O)[C@@H]2O)[C@H](O)[C@H](O)[C@H]1O [RUT, Rutin]
vascular irritation signs (hemorrhage, lysis, coagulation) in words [2]: No signs of vascular irritation | effect on cell viability ([9]; highest concentrations (50 and 100 µM)): did not decrease cells viability | effect on cell viability [9, 17]: stimulatory effect | effect on cell viability [10]: not affected | IC50, inhibitory effect on HaCaT cells' growth [11]: 60 µg/mL (≈ 98.3 µM) | effect on wound regeneration [12]: no impact on wound regeneration | nuclear morphology changes [4]: no significant nuclear alterations | impact on cells' adherence or confluency [5]: no negative impact | wound healing rate [13]: 37.73% | nuclear morphology changes [6]: no significant nuclear alterations | nuclear morphology changes [7]: no significant nuclear alterations

CCCCC/C=C\C/C=C\CCCCCCCC(=O)O[C@@H]1[C@@H](O)[C@@H](O)[C@H](OC[C@H]2O[C@@H](Oc3c(-c4ccc(O)c(O)c4)oc4cc(O)cc(O)c4c3=O)[C@H](O)[C@@H](O)[C@@H]2O)O[C@H]1C [RUT-L, rutin linoleate]
tissue viability compared to negative control (DPBS-treated inserts) ([14]; EpiDerm inserts): over 100% | skin irritation classification (OECD Test Guideline 439, irritant if viability below 50%) [14]: non-irritant | vascular irritation signs (hemorrhage, lysis, coagulation) in words [2]: no significant irritant effects | tC = time of coagulation [2]: 290 s | tH = time of hemorrage [2]: 300 s | tL = time of lysis [2]: 295 s | Irritation score (IS) [2]: 0.49 | effect on cell viability [9, 17]: stimulatory effect | effect on cell viability [10]: stimulatory effect at all concentrations | wound healing rate [15]: 22.77% | nuclear morphology changes [4]: No significant changes | impact on cells' adherence or confluency [5]: no negative impact | nuclear morphology changes [6]: No significant changes | nuclear morphology changes [7]: No significant changes | cell viability normalized to control [16]: 101.25%

CCCCCCCC/C=C\CCCCCCCC(=O)OC1C(C)OC(OCC2OC(Oc3c(-c4ccc(O)c(O)c4)oc4cc(O)cc(O)c4c3=O)C(O)C(O)C2O)C(O)C1O (stereo not drawn) [RUT-O, rutin oleate]
tissue viability compared to negative control (DPBS-treated inserts) ([14]; EpiDerm inserts): over 100% | skin irritation classification (OECD Test Guideline 439, irritant if viability below 50%) [14]: non-irritant | vascular irritation signs (hemorrhage, lysis, coagulation) in words [2]: no significant irritant effects | tC = time of coagulation [2]: 286 s | tH = time of hemorrage [2]: 300 s | tL = time of lysis [2]: 291 s | Irritation score (IS) [2]: 0.70 | cell viability normalized to control ([9]; 50 µM): 79.03% | cell viability normalized to control ([9]; 100 µM): 77.53% | cell viability normalized to control ([10]; 100 µM, MTT): 78.32% | wound healing rate [15]: 27.18% | nuclear morphology changes [4]: several apoptotic-like features | round cells floating in the culture medium [5]: several round cells floating in the culture medium | impact on cells' adherence or confluency [5]: no negative impact | nuclear morphology changes [6]: chromatin condensation | nuclear morphology changes [7]: nuclear fragmentation and formation of apoptotic bodies | cell viability normalized to control ([16]; HepaRG, 24 h, MTT): 83.17%

CCCCCCCCCCCCOS(=O)(=O)[O-].[Na+] [SDS 1%, sodium dodecyl sulphate]
tissue viability ([14]; EpiDerm inserts, positive control 5% solution): 10% | vascular irritation signs (hemorrhage, lysis, coagulation) in words [2]: the most obvious signs of vascular irritation | tC = time of coagulation [2]: 15 s | tH = time of hemorrage [2]: 22 s | tL = time of lysis [2]: 20 s | Irritation score (IS) [2]: 19.78
